From patent publication EP1606307B1, “ESTRIENO[3,2-B]/[3,4-C]PYRROLE DERIVATIVES USEFUL AS MODULATORS OF THE ESTROGEN RECEPTORS” (Ortho-McNeil Pharmaceutical, Inc., priority 2002, dated 2004) come the findings set out here.

The target in test [1] is T1, human estrogen receptor β (Homo sapiens, UniProt Q92731).
T1 construct: purchased Panvera
Put plainly: Estrogen Receptor β Fluorescence Polarization Assay (Fluormone ES2 displacement). The class given is binding. The settings on record: read-out: ERβ at 1 µM % Inhibition. An excerpt: This assay monitors binding of a fluorescent analog of estrogen (Fluormone ES2, Panvera) to the estrogen receptor. Plates were read in a fluorometer that can be set to polarization mode. A decrease in fluorescence relative to vehicle control is an indication of binding of a compound to the receptor.
It is crucial to avoid introduction of air bubbles into the reaction in each well of the 96 well plate throughout this procedure. (Bubbles on the surface of the reaction disrupt light flow, affecting the polarization reading.) However, it is also crucial to effectively mix the reaction components upon addition to the well.
On ice, a 2X standard mixture of Assay Buffer (Panvera), 10 nM DTT and 40 nM ES2 was prepared. On ice, a 2X reaction mixture of Assay Buffer (Panvera), and 20 nM human estrogen receptor β (hER-β, Panvera) and 40 nM ES2 was also prepared.
Dilutions of test compound were prepared in 30% (v/v) dimethyl sulfoxide/50 mM HEPES, pH 7.5. At this point, the dilutions were 40X the final required concentration.
The standard mixture at 50 µL was then added to each well. The reaction mixture at 48 µL was added to all wells. The compound dilution at 2.5 µL was added to the appropriate wells. The reaction mixtures were mixed using a manual pipette, a roll of aluminum foil adhesive cover was placed on the plate and the plate incubated at room temperature for 1 hour.
Each well on the plate was then read in an LjL Analyst with an excitation wavelength of […] and an emission wavelength of 538.
For orientation: Polarisation of emitted light reports the rotation of a fluorescent probe.

The target of test [2] is T2, human estrogen receptor α (Homo sapiens, UniProt P03372).
T2 construct: purchased Panvera
T2 sequence (P03372 1-595): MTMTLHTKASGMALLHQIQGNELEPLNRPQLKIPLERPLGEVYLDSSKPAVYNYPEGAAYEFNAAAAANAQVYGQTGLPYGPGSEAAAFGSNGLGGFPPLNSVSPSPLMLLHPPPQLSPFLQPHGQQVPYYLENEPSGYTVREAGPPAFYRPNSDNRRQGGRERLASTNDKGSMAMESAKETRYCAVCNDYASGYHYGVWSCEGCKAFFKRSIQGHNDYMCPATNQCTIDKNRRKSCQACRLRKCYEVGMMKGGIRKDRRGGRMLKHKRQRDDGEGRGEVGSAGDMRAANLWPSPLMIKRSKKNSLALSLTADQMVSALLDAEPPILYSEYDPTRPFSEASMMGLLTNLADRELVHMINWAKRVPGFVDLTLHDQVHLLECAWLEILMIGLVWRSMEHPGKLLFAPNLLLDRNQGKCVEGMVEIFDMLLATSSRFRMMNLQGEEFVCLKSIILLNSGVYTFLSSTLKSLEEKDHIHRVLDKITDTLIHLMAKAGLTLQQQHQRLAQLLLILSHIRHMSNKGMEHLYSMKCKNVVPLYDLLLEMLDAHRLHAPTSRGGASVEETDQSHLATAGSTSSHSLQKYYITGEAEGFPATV
Put plainly: Estrogen Receptor α Flash Plate Assay (binding of radiolabeled estrogen). The settings on record: for inhibition at 1 µM: read-out: ERα at 1µM % Inhibition; for IC50: read-out: ERα Binding IC50. The procedure: This assay monitors binding of radiolabeled estrogen to the estrogen receptor. It was performed on a BioMek 2000 (Beckman). Plates were read in a scintillation counter (Packard TopCount), with decreased counts an indication of binding of a compound to the receptor. The assay was run according to the procedure described by Allan, et al., Anal. Biochem. (1999), 275(2), 243-247.
On day one, 100 µL of Estrogen Screening Buffer (ESB, Panvera) containing 5mM dithiothreitol (DTT, Panvera), 0.5 µg mouse anti-estrogen receptor monoclonal antibody (SRA-1010, Stressgen) and 50 ng purified human estrogen receptor α (nER-α, Panvera) were added to each well of a 96 well FlashPlate Plus plate crosslinked with goat anti-mouse antibodies (NEN Life Sciences). The plate was sealed and incubated at 4°C overnight.
On day two, each well was washed three times with 200 µL PBS, pH 7.2, at room temperature. To each well was then added 98 µL radiolabeled estrogen (0.5 nM, which equals 6 nCi for a 120 Ci/mmol batch, Amersham), diluted in ESB and 5mM dithiothreitol (DTT). To individual wells were then added 2.5 µL test compound diluted in 30% (v/v) dimethyl sulfoxide/50 mM HEPES, pH 7.5. The wells were mixed three times by aspiration, the plate sealed and incubated at room temperature for one hour. The wells were then counted for 1 min in a TopCount scintillation counter (Packard).

The subject of test [3] is Human Endometrial lshikawa Cells. In words: Alkaline Phosphatase Assay in Human Endometrial Ishikawa Cells. The class given is cell-based. As to conditions: increase in alkaline phosphatase activity vs vehicle. Here is the method:
This assay was run according to the procedure described by Albert et a., Cancer Res, […], 50(11), 330-6-10, with minor modification.
Ishikawa cells (from ATCC) were maintained in DMEM/F12 (1:1) phenol red free medium (Gibco) supplemented with 10% calf serum (Hyclone). 24 hours prior to testing, the medium was changed to DMEM/F12 (1:1) phenol red free containing 2% calf serum.
Compounds to be tested in the agonist mode were added to the culture media at varying concentrations. Compounds to be treated in the antagonist mode were prepared similarly, and 10 nM 17β-estradiol was also added to the culture media. The cells were then incubated at 37°C for 3 days. On the fourth day, the media was remove, 1 volume of 1X Dilution Buffer (Clontech) was added to the well followed by addition of 1 volume of Assay Buffer (Clontech). The cells were then incubated at room temperature for 5 minutes. 1 volume of freshly prepared Chemiluminescence Buffer (1 volume of chemiluminescent substrate (CSPD) in 19 volume Chemiluminescent Enhancer with final concentration of CSPD at 1.25 mM; Sigma Chemical Co.) was added. The cells were incubated at room temperature for 10 minutes and then quantified on a luminometer. The increase of chemiluminescence over vehicle control was used to calculate the increase in alkaline phosphatase activity.

In another test the test system is MCF-7 cells. Put plainly: MCF-7 Cell Proliferation Assay (14C-thymidine incorporation). As to conditions: Homo sapiens, MCF7, increase in 14C-thymidine vs vehicle, read-out: MCF7 (Breast) EC50. Type of test: cell-based. The procedure:
This assay was run according to the procedure described by Welshons, et al., (Breast Cancer Res. Treat., 1987, 10(2), 169-75), with minor modification.
Briefly, MCF-7 cells (from Dr. C. Jordan, Northwestern University) were maintained in RPMI 1640 phenol red free medium (Gibco) in 10% FBS (Hyclone), supplemented with bovine insulin and non-essential amino acid (Sigma). The cells were initially treated with 4-hydoxyltamoxifen (10^-8 M) and let stand at 37°C for 24 hours. Following this incubation with tamoxifen, the cells were treated with compounds at various concentrations.
Compounds to be tested in the agonist mode were added to the culture media at varying concentrations. Compounds to be treated in the antagonist mode were prepared similarly, and 10 nM 17β-estradiol was also added to the culture media. The cells were incubated for 24 hours at 37°C. Following this incubation, 0.1 µCi of ^14C-thymidine (56mCi/mmol, Amersham) was added to the culture media and the cells were incubated for an additional 24 hours at 37°C. The cells were then washed twice with Hank's buffered salt solution (HBSS) (Gibco) and counted with a scintillation counter. The increase in the ^14C-thymidine in the compound treated cells relative to the vehicle control cells were reported as percent increase in cell proliferation.

T1 sequence (Q92731 whole entry): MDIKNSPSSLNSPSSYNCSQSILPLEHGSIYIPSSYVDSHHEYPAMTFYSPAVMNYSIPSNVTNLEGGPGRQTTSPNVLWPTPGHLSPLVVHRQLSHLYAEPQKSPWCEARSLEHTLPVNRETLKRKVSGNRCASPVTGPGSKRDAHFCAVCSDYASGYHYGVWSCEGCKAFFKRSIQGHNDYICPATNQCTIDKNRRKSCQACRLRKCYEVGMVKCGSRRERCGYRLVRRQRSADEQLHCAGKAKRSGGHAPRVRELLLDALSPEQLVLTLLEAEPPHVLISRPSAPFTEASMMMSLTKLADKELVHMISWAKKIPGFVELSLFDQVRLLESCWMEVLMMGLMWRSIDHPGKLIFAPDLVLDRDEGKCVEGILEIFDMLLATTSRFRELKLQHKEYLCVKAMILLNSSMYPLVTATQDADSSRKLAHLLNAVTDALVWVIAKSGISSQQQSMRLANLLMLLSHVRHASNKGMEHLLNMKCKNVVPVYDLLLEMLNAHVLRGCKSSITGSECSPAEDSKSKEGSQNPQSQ

The term inhibition denotes how much of the control response was suppressed. Regarding `C[C@]12CCC3c4cc5ccn(S(C)(=O)=O)c5cc4CCC3C1CCC2=O` (stereo partly shown) [Compound 1], the figures for the inhibition at 1 µM in test [1] and in test [2] were 6.2% and 11%, respectively.
The corresponding values for `C[C@]12CCC3c4ccc5c(ccn5S(C)(=O)=O)c4CCC3C1CCC2=O` (stereo partly shown) [Compound 2] are 27% and 45%.
What is called EC50 is the midpoint of the concentration-response curve. What is called IC50 is the point on the concentration scale where inhibition reaches its midpoint. For the compound `C[C@]12CCC3c4cc5cc[nH]c5cc4CCC3C1CCC2=O` (stereo partly shown) [Compound 3], the EC50 worked out at 1.9 nM in test [3] and 240 nM in the test with MCF-7 cells. In test [2], the IC50 came to 2200 nM.
Turning to `C[C@]12CCC3c4ccc5[nH]ccc5c4CCC3C1CCC2=O` (stereo partly shown) [Compound 4], the values for the EC50 (in test [3]; in the test with MCF-7 cells) were 1.8 nM and 280 nM, respectively. Moreover, the IC50 in test [2] was found to be 1400 nM.
The corresponding values for `C[C@]12CCC3c4ccc5[nH]ccc5c4CCC3C1CC[C@@H]2O` (stereo partly shown) [Compound 6] are 0.21 nM, 2.9 nM and 42 nM.
Regarding `C[C@]12CCC3c4cc5ccn(S(C)(=O)=O)c5cc4CCC3C1CC[C@@H]2O` (stereo partly shown) [Compound 7], the inhibition at 1 µM turned out to be 14% in test [1] and 19% in test [2].
On to `C[C@]12CCC3c4cc5cc[nH]c5cc4CCC3C1CC[C@@H]2O` (stereo partly shown) [Compound 8], for which the values for the EC50 (in test [3]; in the test on MCF-7 cells) were 0.44 nM and 11 nM, respectively. In addition, the IC50 in test [2] amounted to 40 nM.
With `CCCCC(=O)O[C@H]1CCC2C3CCc4cc5[nH]ccc5cc4C3CC[C@@]21C` (stereo partly shown) [Compound 12], the inhibition at 1 µM in test [1] was 96%; in test [2], 95%.
In the case of `C[C@]12CCC3c4cc5cc[nH]c5cc4CCC3C1CC[C@@H]2OC(=O)CCC(=O)O` (stereo partly shown) [Compound 13], the EC50 in test [3] stood at 1.2 nM; in the test on MCF-7 cells, 15 nM. In addition, in test [2], the IC50 was 920 nM.
Regarding `CSc1c[nH]c2ccc3c(c12)CCC1C3CC[C@]2(C)C(=O)CCC12` (stereo partly shown) [Compound 15], the inhibition at 1 µM in test [1] was determined as 66%; in test [2], 81%.
